Measurements published in publication PMC6556873, “Rapid Covalent-Probe Discovery by Electrophile-Fragment Screening” (Journal of the American Chemical Society, 2019).
Read-outs that look alike come from different tables or passages of the source.

Key:
[1] = biological target: T1, BSA (Bos taurus, UniProt P02769); set-up: Intact protein LC/MS covalent labelling, fragments in pools of five, 200 uM each, 4 °C; conditions: 24 h, 4 °C, pool of five; 200 µM; covalent
T1 construct: gene ALB
Experimental: (§1) Incubations were performed at 200 μM for each compound and 2 μM of protein (10 μM for BSA) for 24 h at 4 °C with moderate shaking. Incubation buffers varied among proteins (PBS pH 7.4 for QSOX1 and BSA; 10 mM HEPES pH 7.5, 0.3 M NaCl, 0.5 mM TCEP for PCAF, UPS8, and NUDT7; […]; 10 mM Na2HPO4 pH 7.5 100 mM NaCl 5 mM β-mercaptoethanol for NV3CP; 20 mM Na phosphate pH 7.5 for NNMT; […]. The reaction was stopped by quenching with formic acid, 0.4% final concentration. Each protein was incubated with the electrophilic library in pools of five compounds per well. The pool’s composition maximized the difference in mass between fragments in the same well. Incubations were performed with each fragment at 200 μM, for 24 h at 4 °C, to allow the screening of proteins that are not stable for long time periods at higher temperatures. Following incubation, we used intact protein [compound left out] chromatography/mass spectrometry (LC/MS) to identify the fragments and quantify their labeling (Figure 3A). […] There was good agreement between the percent of labeling of NUDT7 by 100 random individual compounds and that obtained in pools of five (R^2=0.78; Figure S6 and Data set 2 in the Supporting Information).

[2] = biological target: T2, PCAF (Homo sapiens, UniProt Q92831); set-up: Intact protein LC/MS covalent labelling, fragments in pools of five, 200 uM each, 4 °C; conditions: 24 h, 4 °C, pool of five; 200 µM; covalent
T2 construct: gene KAT2B
Experimental: as §1

[3] = biological target: T3, OTUB2 (OTUB2A) (Homo sapiens, UniProt Q96DC9); set-up: Intact protein LC/MS covalent labelling, fragments in pools of five, 200 uM each, 4 °C; conditions: 24 h, 4 °C, pool of five; 200 µM; covalent
T3 construct: full length residues 1-234, E. coli BL21(DE3)-R3, His tag removed by TEV, construct 27312 Da
T3 sequence (Q96DC9 1-234): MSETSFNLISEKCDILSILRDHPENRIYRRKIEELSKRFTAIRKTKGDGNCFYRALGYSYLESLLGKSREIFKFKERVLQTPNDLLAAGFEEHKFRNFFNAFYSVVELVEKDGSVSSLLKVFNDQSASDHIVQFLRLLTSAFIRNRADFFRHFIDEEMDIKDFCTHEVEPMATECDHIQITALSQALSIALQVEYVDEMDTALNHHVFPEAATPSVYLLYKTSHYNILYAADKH
Experimental: as §1

[4] = biological target: T4, NUDT7 (Homo sapiens, UniProt P0C024); set-up: Intact protein LC/MS covalent labelling, fragments in pools of five, 200 uM each, 4 °C; conditions: 24 h, 4 °C, pool of five; 200 µM; covalent
T4 construct: residues 14-235, E. coli, pNIC28-Bsa4, N-terminal His6 tag removed by TEV, construct 26672 Da
Experimental: as §1

[5] = in vitro; set-up: species or system HB2, HEK293; conditions: human, ccd841 cells
[6] = in vitro; set-up: species or system CCD841, HEK293; conditions: human, hb2 cells, read-out: HB-2 Cells Viability (%)
[7] = in vitro; set-up: species or system HB2, CCD841; conditions: human, hek293 cells

T4 sequence (P0C024 14-235): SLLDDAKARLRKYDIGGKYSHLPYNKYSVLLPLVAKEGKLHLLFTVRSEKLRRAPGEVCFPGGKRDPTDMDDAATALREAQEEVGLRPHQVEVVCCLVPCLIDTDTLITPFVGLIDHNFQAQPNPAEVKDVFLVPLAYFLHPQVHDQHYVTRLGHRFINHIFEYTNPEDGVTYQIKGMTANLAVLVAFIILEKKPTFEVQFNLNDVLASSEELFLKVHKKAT
T1 sequence (P02769 whole entry, the tested form may be a part): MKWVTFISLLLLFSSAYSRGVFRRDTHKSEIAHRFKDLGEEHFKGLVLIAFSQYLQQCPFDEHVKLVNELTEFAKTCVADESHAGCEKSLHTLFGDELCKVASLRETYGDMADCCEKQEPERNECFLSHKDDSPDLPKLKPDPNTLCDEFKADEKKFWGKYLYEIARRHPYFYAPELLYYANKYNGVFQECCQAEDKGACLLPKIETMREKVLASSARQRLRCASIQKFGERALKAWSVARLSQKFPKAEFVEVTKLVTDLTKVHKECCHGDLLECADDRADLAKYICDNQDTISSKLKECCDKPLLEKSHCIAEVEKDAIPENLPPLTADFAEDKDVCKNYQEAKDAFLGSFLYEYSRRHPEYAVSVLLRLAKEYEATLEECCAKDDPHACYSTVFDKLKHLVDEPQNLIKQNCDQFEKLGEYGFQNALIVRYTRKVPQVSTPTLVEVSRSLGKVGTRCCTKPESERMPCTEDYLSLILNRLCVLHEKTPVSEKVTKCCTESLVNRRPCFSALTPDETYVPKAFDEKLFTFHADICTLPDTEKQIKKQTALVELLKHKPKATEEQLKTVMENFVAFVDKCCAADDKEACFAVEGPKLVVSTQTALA
T2 sequence (Q92831 whole entry, the tested form may be a part): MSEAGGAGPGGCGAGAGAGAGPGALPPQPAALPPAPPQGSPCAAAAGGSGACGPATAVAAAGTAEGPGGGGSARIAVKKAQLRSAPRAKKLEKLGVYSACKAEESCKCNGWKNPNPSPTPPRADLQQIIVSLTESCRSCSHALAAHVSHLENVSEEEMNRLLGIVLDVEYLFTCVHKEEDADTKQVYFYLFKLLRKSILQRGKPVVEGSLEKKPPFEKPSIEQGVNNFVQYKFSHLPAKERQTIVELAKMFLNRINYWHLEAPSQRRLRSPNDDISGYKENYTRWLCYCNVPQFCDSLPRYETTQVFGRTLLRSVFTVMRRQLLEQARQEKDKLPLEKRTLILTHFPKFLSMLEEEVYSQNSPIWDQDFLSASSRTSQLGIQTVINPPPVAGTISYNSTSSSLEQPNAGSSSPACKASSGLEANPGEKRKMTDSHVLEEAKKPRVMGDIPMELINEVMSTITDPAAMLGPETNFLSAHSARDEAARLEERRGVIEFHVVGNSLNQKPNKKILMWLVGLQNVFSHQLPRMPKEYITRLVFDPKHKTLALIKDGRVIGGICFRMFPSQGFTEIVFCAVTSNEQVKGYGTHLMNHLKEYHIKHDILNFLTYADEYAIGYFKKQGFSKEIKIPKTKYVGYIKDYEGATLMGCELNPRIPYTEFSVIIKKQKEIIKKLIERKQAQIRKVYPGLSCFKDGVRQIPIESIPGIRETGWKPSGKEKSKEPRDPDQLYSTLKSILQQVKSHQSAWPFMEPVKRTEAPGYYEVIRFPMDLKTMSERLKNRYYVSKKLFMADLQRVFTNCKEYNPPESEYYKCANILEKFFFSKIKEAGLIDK

SMILES	BSA [1]	PCAF [2]	OTUB2 [3]	NUDT7 [4]	viability at 48 h, 10 µM [5] [%]	viability at 48 h, 10 µM [6] [%]	viability at 48 h, 10 µM [7] [%]
O=C(CCl)Nc1cccc(F)c1 [PCM-0102364]	0	0	0	0.09	45.7	25	5.9
C=CC(=O)NCc1nnc(C(C)(C)C)s1 [PCM-0102727]	0	0	0.18	0	108	105	100
C=CC(=O)NC(c1cnn(C)c1)C(F)(F)F (stereo not drawn) [PCM-0103073]	0	0	0	0	107	99.5	94.4
C=CC(=O)N1CCCN(Cc2cn3cc(Cl)ccc3n2)CC1 [PCM-0102565]	0	0	0	0.18	104	106	105
O=C(CCl)NC1CS(=O)(=O)CC1Cl (stereo not drawn) [PCM-0102291]	0	0	0	0.12	76.3	99.6	91.6
NC(=O)C1CN(C(=O)CCl)c2ccccc2O1 (stereo not drawn) [PCM-0102245]	0	0	0.15	0.12	60.8	58.4	31.8
CC1CN(c2ccc(NC(=O)CCl)cc2)CC(C)O1 (stereo not drawn) [PCM-0102750]	0	0	0.24	0	64.7	65.9	52.7
C=CC(=O)Nc1ccccc1C(F)(F)F [PCM-0102581]	0	0	0	0	121	108	123
C=CC(=O)N1CCCC(S(=O)(=O)N2CCOCC2)C1 (stereo not drawn) [PCM-0102849]	0	0	0	0	97.2	107	97.9
C=CC(=O)NC1CCN(c2ccc(C(F)(F)F)cn2)CC1 [PCM-0102602]	0	0	0	0	94.7	103	62.4
Cl.O=C(CCl)N1CCN(CC(=O)N2CCOCC2)CC1 [PCM-0102133]	0	0	0.15	0	94.8	96.6	92.7
O=C(CCl)Nc1ccc(Br)cn1 [PCM-0102227]	0	0	0	0	75.7	84.3	72.4
CC(NC(=O)CCl)c1cccc(Cl)c1 (stereo not drawn) [PCM-0102190]	0	0	0.37	0.42	73.2	69.6	49.3
O=C(CCl)Nc1ccc2c(c1)OCCCO2 [PCM-0102409]	0	0	0.23	0.1	51.7	29.6	6.9
CN(C(=O)CCl)c1ccc([N+](=O)[O-])cc1 [PCM-0102669]	0	0	0	0.14	17.3	12.9	10.5
Cc1noc(C)c1CNC(=O)CCl [PCM-0102780]	0	0	0	0.11	94.9	102	101
NC(=O)c1c(NC(=O)CCl)sc2c1CCCC2 [PCM-0102620]	0	0	0.16	0.36	73.1	42.3	29.6
O=C(CCl)Nc1ccc(C(F)(F)F)cc1 [PCM-0102323]	0	0	0.17	0.07	53.2	11.1	5.5
C=CC(=O)N1CC(Oc2ccc(C#N)cc2)C1 [PCM-0103059]	0	0	0.07	0	90.8	98.1	73.3
C=CC(=O)N1CCCC2(CNC(=O)O2)C1 (stereo not drawn) [PCM-0102808]	0	0	0.13	0	113	103	102
O=C(CCl)NC(=O)OCc1ccccc1 [PCM-0102153]	0	0	0.79	0	109	96	82.8
